# According to US20260364080A1, “PYRAZOLO-PYRIMIDINONE COMPOUNDS FOR USE IN METHODS OF INHIBITING WEE1 A KINASE” (Acrivon Therapeutics, Inc., priority 2023, published 2026):
# Key:
# [1] = target: T1, recombinant human Wee1A kinase (Homo sapiens, UniProt P30291); assay: Wee1A kinase binding assay (LanthaScreen Eu time-resolved FRET); conditions: 30 nM tracer 178, 5 nM Wee1A kinase, 2 nM Eu-labeled antibody; 60 minutes at room temperature; read-out: Wee1A kinase Binding IC50
# T1 construct: full length Wee1 kinase was expressed by baculovirus in insect cells; purchased Invitrogen PV3817; host or cells: insect cells (baculovirus)
# Description: This time resolved-FRET binding assay was performed in white 384-well low volume plates (Greiner, cat #784075), at room temperature in kinase buffer A (KBA; Invitrogen cat #PV3189), consisting of 50 mM HEPES-NaOH (pH 7.5), 0.01% Brij-35, 10 mM MgCl2, and 1 mM EGTA. 5 μL of compound (diluted in reaction buffer, to 1% DMSO) were added to various wells in the plate, followed by 5 μL each of recombinant human Wee1A kinase (full length Wee1 kinase was expressed by baculovirus in insect cells using a N-terminal GST tag (MW: 99.1 kDa) (Invitrogen cat #PV3817) and LanthaScreen Eu-anti-GST antibody (Invitrogen, cat #PV5594). After this, 5 μL of kinase tracer 178 (Invitrogen, cat #PV5593) was added to the plate and the plate was incubated for 60 minutes at room temperature. The final assay conditions in each well were: 30 nM tracer 178, 5 nM Wee1A kinase and 2 nM Eu-labeled antibody in total assay volume of 15 μL. An Envision 2104 (Perkin-Elmer) Plate Reader with the following time-resolve fluorescence setting was used for performing LanthaScreen kinase binding assay. • Excitation 320 nm (30 nm bandpass) • Kinase Tracer Emission 665 nm (10 nm bandpass) • LanthaScreen Eu-anti-Tag Antibody Emission 615 nm (10 nm bandpass) • Dichroic Mirror Instrument dependent • Delay Time 100 μs • Integration Time 200 μs
# (§1) To calculate the emission ratio, the acceptor/tracer emission ([…]) was divided by the antibody/donor emission ([…]) and the average of duplicate measurement was used for calculations. Data plotting, analysis of binding, and curve fitting was done using Excel add-in XLfit version 5.5.0.5 (IDBS, Guildford, United Kingdom). […] “NT” means not tested.
# [2] = target: T2, Myt1 kinase (recombinant PMYT-1) (Homo sapiens, UniProt Q99640); assay: Myt1 kinase binding assay (LanthaScreen Eu Kinase Binding Assay); conditions: 3 nM tracer 178, 2.5 nM PMYT-1, 1 nM Eu-labeled antibody; read-out: Myt1 kinase Binding IC50
# T2 construct: full length PMYT-1 was expressed by baculovirus in insect cells; purchased Invitrogen A30984; host or cells: insect cells (baculovirus)
# T2 sequence (Q99640 1-499): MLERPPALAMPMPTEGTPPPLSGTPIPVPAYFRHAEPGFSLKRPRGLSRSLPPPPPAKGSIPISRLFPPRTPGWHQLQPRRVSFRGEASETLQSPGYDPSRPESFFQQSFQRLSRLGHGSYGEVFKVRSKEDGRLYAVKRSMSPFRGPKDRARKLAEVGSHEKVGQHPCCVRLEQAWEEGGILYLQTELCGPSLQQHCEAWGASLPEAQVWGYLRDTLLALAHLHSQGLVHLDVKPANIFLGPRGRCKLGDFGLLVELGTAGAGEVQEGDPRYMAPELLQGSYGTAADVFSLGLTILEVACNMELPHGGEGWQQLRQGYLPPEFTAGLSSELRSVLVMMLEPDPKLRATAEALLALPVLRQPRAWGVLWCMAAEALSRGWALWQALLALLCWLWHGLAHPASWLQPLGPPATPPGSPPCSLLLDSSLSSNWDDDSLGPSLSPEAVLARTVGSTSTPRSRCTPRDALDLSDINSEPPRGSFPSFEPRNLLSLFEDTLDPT
# Description: as §1
# We used a LanthaScreen Europium (Eu) Kinase Binding Assay to determine the binding affinities (IC50) of compounds to Myt1 kinase. […] “NT” designates that the compound was not tested in this assay.
# [3] = target: T3, Wee1A kinase (CDK1 Tyr15 phosphorylation in ACHN renal cell carcinoma cells) (Homo sapiens, UniProt P30291); assay: High-content imaging of pCdk1 Y15, Wee1A kinase target engagement in ACHN cells; assay type: cell-based; conditions: 4 h treatment, nuclear positivity for pCdk1 Y15 vs DMSO control, read-out: CDK1 Tyr15 Phosphorylation EC50
# T3 construct: pCDK1 Tyr15 immunofluorescence read-out
# Description: Each of an ACHN renal cell carcinoma cell line (ATCC) and a DAOY medulloblastoma cell line, and an A427 lung cancer line were cultured in Minimum Essential Medium Eagle supplemented with 10% fetal calf serum (Sigma), 1% Penicillin-Streptomycin and 10 mM HEPES buffer (HyClone). Cell cultures were kept in a humidified incubator at 37 °C and 5% CO2. Cells were routinely tested for Mycoplasma contamination.
# For target engagement assessment of Wee1A kinase inhibition, high-content imaging of ACHN renal cell carcinoma cells was used for quantification of CDK1 phosphorylated on tyrosine 15 by immunofluorescence (“IF”). 20,000 cells per well were seeded in tissue culture treated 96 well plates and treated with compounds at concentrations ranging from 7 to 5,000 nM or from 0.3 to 200 nM for 4h. Cells were fixated for 15 minutes in 4% paraformaldehyde solution, washed in PBS and permeabilized using 0.2% Triton X-100. Blocking was performed for 1 h at RT using Blocker FL Fluorescent Blocking Buffer (Thermo Scientific), thereafter cells were incubated with primary antibody (rabbit anti-pCDK1 Y^15, #4539, Cell Signaling Technology) at 4 °C ON. Alexa Fluor Plus 647 labelled goat anti-rabbit (A32733, Thermo Scientific) was used as secondary antibody. After washing in PBS, nuclei were stained with DAPI solution for 10 min at RT, protected from light. Cells were imaged using an ImageXpress Pico automated imaging system and CellReporter Xpress software (Molecular Devices). The percentage of cells with nuclear positivity for pCdk1 Y^15 compared to DMSO control was determined for each well and drug dose response curves and EC50 values were calculated and visualized using GraphPad Prism. Target engagement for Wee1A kinase can also be measured using the same AlphaLISA assay in OVCAR3 cells, an ovarian cancer cell line. NIH:OVCAR-3 (OVCAR3) cells are cultured in RPMI-1640 medium supplemented with 0.01 mg/ml insulin, 20% FBS, 1% Penicillin-Streptomycin and 10 mM HEPES buffer. 14,000 cells per well are seeded into 96 well tissue culture plates in full medium. Twenty-four hours post seeding, cells are treated with compound for 4 hours at concentrations ranging from 0.017 nM to 1000 nM.
# T3 sequence (P30291 whole entry): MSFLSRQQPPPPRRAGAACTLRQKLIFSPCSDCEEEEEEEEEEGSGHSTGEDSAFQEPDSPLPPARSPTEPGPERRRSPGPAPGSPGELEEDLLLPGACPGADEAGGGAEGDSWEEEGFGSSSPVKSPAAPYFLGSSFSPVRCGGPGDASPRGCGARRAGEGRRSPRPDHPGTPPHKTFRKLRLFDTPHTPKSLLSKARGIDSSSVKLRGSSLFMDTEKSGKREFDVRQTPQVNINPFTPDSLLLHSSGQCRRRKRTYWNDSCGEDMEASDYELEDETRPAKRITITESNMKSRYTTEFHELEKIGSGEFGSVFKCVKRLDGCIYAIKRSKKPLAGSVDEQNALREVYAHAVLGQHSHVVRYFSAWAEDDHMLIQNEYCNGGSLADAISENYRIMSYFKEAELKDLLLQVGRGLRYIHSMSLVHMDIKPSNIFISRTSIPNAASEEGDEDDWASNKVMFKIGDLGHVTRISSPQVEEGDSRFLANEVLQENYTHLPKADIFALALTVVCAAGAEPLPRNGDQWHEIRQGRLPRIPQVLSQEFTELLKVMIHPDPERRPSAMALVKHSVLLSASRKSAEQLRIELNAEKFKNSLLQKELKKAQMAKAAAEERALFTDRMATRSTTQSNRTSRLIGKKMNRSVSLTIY
# T1 sequence (P30291 whole entry): as above
IC50 [1],IC50 [2],EC50 [3],Structure (SMILES)
< 10 nM,20 to 100 nM,100 to 500 nM,"CCCn1c(=O)c2cnc(Nc3ccc4c(cnn4C)c3)nc2n1-c1cccc(OC2CCNCC2)n1 [Compound 110, 6-[(1-methyl-1H-indazol-5-yl)amino]-1-[6-(piperidin-4-yloxy)pyridin-2-yl]-2-propyl-1H,2H,3H-pyrazolo[3,4-d]pyrimidin-3-one]"
< 10 nM,20 to 100 nM,< 100 nM,"CCCn1c(=O)c2cnc(Nc3ccc4c(cnn4C)c3)nc2n1-c1cccc(OC2CCN(C)CC2)n1 [Compound 111, 6-[(1-methyl-1H-indazol-5-yl)amino]-1-{6-[(1-methylpiperidin-4-yl)oxy]pyridin-2-yl}-2-propyl-1H,2H,3H-pyrazolo[3,4-d]pyrimidin-3-one]"
< 10 nM,20 to 100 nM,< 100 nM,"CCn1c(=O)c2cnc(Nc3ccccc3)nc2n1-c1cccc(OC2CCN(C)CC2)n1 [Compound 117, 6-anilino-2-ethyl-1-[6-(1-methyl-4-piperidyloxy)-2-pyridyl]-1,2-dihydro-3H-1,2,5,7-tetraazainden-3-one]"
< 10 nM,100 to 500 nM,< 100 nM,"C=CCn1c(=O)c2cnc(Nc3ccc4c(cnn4C)c3)nc2n1-c1cccc(N[C@@H]2CCN(C(C)C)C2)n1 [Compound 120, 6-[(1-methyl-1H-indazol-5-yl)amino]-2-(prop-2-en-1-yl)-1-(6-{[(3R)-1-(propan-2-yl)pyrrolidin-3-yl]amino}pyridin-2-yl)-1H,2H,3H-pyrazolo[3,4-d]pyrimidin-3-one]"
< 10 nM,100 to 500 nM,500 to 1000 nM,"C=CCn1c(=O)c2cnc(Nc3ccccc3)nc2n1-c1cccc(NC2CCNCC2)n1 [Compound 123, 6-(phenylamino)-1-{6-[(piperidin-4-yl)amino]pyridin-2-yl}-2-(prop-2-en-1-yl)-1H,2H,3H-pyrazolo[3,4-d]pyrimidin-3-one]"
< 10 nM,20 to 100 nM,500 to 1000 nM,"C=CCn1c(=O)c2cnc(Nc3ccc(Cl)cc3)nc2n1-c1cccc(NC2CCNCC2)n1 [Compound 124, 2-allyl-6-((4-chlorophenyl)amino)-1-(6-(piperidin-4-ylamino)pyridin-2-yl)-1,2-dihydro-3H-pyrazolo[3,4-d]pyrimidin-3-one]"
< 10 nM,100 to 500 nM,500 to 1000 nM,"C=CCn1c(=O)c2cnc(Nc3ccc(F)cc3)nc2n1-c1cccc(NC2CCNCC2)n1 [Compound 125, 6-[(4-fluorophenyl)amino]-1-{6-[(piperidin-4-yl)amino]pyridin-2-yl}-2-(prop-2-en-1-yl)-1H,2H,3H-pyrazolo[3,4-d]pyrimidin-3-one]"
< 10 nM,100 to 500 nM,100 to 500 nM,"C=CCn1c(=O)c2cnc(Nc3ccc(F)c(C)c3)nc2n1-c1cccc(NC2CCNCC2)n1 [Compound 128, 2-allyl-6-(4-fluoro-3-toluidino)-1-[6-(4-piperidylamino)-2-pyridyl]-1,2-dihydro-3H-1,2,5,7-tetraazainden-3-one]"
< 10 nM,100 to 500 nM,> 1000 nM,"C=CCn1c(=O)c2cnc(Nc3ccc(C#N)c(C)c3)nc2n1-c1cccc(NC2CCNCC2)n1 [Compound 134, 2-methyl-4-[(3-oxo-1-{6-[(piperidin-4-yl)amino]pyridin-2-yl}-2-(prop-2-en-1-yl)-1H,2H,3H-pyrazolo[3,4-d]pyrimidin-6-yl)amino]benzonitrile]"

# Continued, molecule first:
Structure (SMILES),IC50 [1],IC50 [2],EC50 [3]
C=CCn1c(=O)c2cnc(Nc3ccc4c(cnn4C)c3)nc2n1-c1cccc(N[C@@H]2CCN(C)C2)n1 [Compound 115],< 10 nM,20 to 100 nM,< 100 nM
"C=CCn1c(=O)c2cnc(Nc3ccc4c(cnn4C)c3)nc2n1-c1cccc(NC2CCNCC2)n1 [Compound 122, 6-[(1-methyl-1H-indazol-5-yl)amino]-1-{6-[(piperidin-4-yl)amino]pyridin-2-yl}-2-(prop-2-en-1-yl)-1H,2H,3H-pyrazolo[3,4-d]pyrimidin-3-one]",< 10 nM,100 to 500 nM,500 to 1000 nM
"C=CCn1c(=O)c2cnc(Nc3cccc(C)c3)nc2n1-c1cccc(NC2CCNCC2)n1 [Compound 126, 2-allyl-1-[6-(4-piperidylamino)-2-pyridyl]-6-m-toluidino-1,2-dihydro-3H-1,2,5,7-tetraazainden-3-one]",< 10 nM,> 500 nM,100 to 500 nM
"C=CCn1c(=O)c2cnc(Nc3ccc(OCC(F)(F)F)cc3)nc2n1-c1cccc(NC2CCNCC2)n1 [Compound 130, 2-allyl-1-[6-(4-piperidylamino)-2-pyridyl]-6-[p-(2,2,2-trifluoroethoxy)phenylamino]-1,2-dihydro-3H-1,2,5,7-tetraazainden-3-one]",< 10 nM,20 to 100 nM,500 to 1000 nM
"C=CCn1c(=O)c2cnc(Nc3ccc(C(F)(F)F)cc3)nc2n1-c1cccc(NC2CCNCC2)n1 [Compound 131, 2-allyl-1-[6-(4-piperidylamino)-2-pyridyl]-6-[p-(trifluoromethyl)phenylamino]-1,2-dihydro-3H-1,2,5,7-tetraazainden-3-one]",< 10 nM,100 to 500 nM,500 to 1000 nM
"CCn1c(=O)c2cnc(Nc3cnn(C)c3)nc2n1-c1cccc(OC2CCN(C)CC2)n1 [Compound 132, 2-ethyl-1-[6-(1-methyl-4-piperidyloxy)-2-pyridyl]-6-(1-methyl-4-pyrazolylamino)-1,2-dihydro-3H-1,2,5,7-tetraazainden-3-one]",< 10 nM,100 to 500 nM,100 to 500 nM
"C=CCn1c(=O)c2cnc(Nc3ccc(Cl)c(C)c3)nc2n1-c1cccc(NC2CCNCC2)n1 [Compound 133, 2-allyl-6-(4-chloro-3-toluidino)-1-[6-(4-piperidylamino)-2-pyridyl]-1,2-dihydro-3H-1,2,5,7-tetraazainden-3-one]",< 10 nM,100 to 500 nM,100 to 500 nM
